Experimental data taken from US8796249B2, “TGR5 modulators and methods of use thereof” (Intercept Pharmaceuticals, Inc., priority 2008, dated 2014).
Marks after values point to notes of the source that are not given here.

Columns and labels:
LXRα = biological target: T1, LXRα (Homo sapiens, UniProt Q13133); experiment: LXR coactivator recruitment (alphascreen); assay type: biochemical; details: ref standard T0901317
T1 sequence (Q13133 1-447): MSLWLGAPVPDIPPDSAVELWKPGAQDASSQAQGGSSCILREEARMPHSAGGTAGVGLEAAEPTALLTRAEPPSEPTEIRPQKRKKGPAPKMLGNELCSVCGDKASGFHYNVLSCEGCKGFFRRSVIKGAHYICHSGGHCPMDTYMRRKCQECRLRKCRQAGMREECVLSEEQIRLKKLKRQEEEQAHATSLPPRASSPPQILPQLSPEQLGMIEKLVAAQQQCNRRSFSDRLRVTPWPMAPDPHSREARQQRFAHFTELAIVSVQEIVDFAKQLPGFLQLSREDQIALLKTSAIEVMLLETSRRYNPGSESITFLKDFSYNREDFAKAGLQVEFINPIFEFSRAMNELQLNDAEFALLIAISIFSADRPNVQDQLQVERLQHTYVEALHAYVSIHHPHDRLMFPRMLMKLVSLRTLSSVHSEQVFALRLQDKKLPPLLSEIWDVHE
Protocol: (§1) The selectivity of compounds of the invention was evaluated using assay methods known in the art. Specifically, the following assay methods were used: • FXR and LXR: Coactivator Recruitment (alphascreen); • TGR5: cAMP level on human intestinal cell line (NCI-H716); • PXR: Ligands Competition assay (Binding Assay) • CAR: Coactivator Recruitment (Lanthascreen)

PXR = biological target: T2, PXR (Homo sapiens, UniProt O75469); experiment: PXR ligands competition assay (binding assay); details: ligands competition assay (binding assay); ref standard SR-12183
T2 sequence (O75469 1-434): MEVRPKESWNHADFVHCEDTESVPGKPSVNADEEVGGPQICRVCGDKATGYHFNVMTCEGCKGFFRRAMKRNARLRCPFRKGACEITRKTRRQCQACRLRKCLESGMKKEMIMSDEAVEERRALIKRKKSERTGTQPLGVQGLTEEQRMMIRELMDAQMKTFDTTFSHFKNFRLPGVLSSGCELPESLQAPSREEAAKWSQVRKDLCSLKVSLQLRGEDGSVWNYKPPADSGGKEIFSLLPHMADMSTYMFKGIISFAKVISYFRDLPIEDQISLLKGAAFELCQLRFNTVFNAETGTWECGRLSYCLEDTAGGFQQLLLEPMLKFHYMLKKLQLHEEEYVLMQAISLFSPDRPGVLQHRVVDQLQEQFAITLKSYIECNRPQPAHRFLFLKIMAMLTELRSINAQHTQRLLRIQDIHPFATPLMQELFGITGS
Protocol: as §1

HepG2 cell = HepG2 cell cytotoxicity, ATP decrease; assay type: cell-based; details: read-out: HepG2 cell Cytotoxicity ATP decrease EC50
Protocol: Compounds of the invention were evaluated for cytotoxicity using standard methods known in the art. Specifically, cytotoxicity was evaluated using HEPG2 cells and monitoring ATP decrease and determining the EC50 value. […]

[1] = BA as protonated species; values from literature; cited from earlier work
[2] = […] NaCl water solution; values from literature; cited from earlier work

C[C@H](CCC(=O)O)[C@H]1CC[C@H]2[C@@H]3[C@H](O)C[C@@H]4C[C@H](O)CC[C@]4(C)[C@H]3C[C@H](O)[C@]12C [CA]
LXRα EC50 (LXRα): No
PXR EC50 (PXR): No
EC50 (HepG2 cell): > 1000 µM
Ws (water solubility) [1]: 273* μM
CMC […] Na+ [2]: 11* mM
